According to patent US20110195924A1, “Methods of Inhibiting the Interaction Between S100P and the Receptor for Advanced Glycation End-Products” (priority 2008, published 2011):
Entries after “also recorded” stand apart in the source; their conditions may differ.

Columns and labels:
[1] = tested on: Panc-1 cells; assay: Panc-1 cell proliferation (MTS); assay type: cell-based
Description: Panc-1 pancreatic adenocarcinoma cells (1.0×10^3 cells/well) were cultured in the presence or absence of S100P (100 nM) and with or without cromolyn (100 μM), and cell proliferation was analyzed at 24, 48, and 72 hours. Means and 95% confidence intervals of three independent experiments performed in triplicate are shown. *, P=0.001, S100P alone versus S100P+cromolyn.
Panc-1 cells were plated at 1.0×10^3 cells/well and treated with platelet-derived growth factor (10 ng/mL) with or without cromolyn (100 μM), and cell proliferation was analyzed after 48 hours. Means and 95% confidence intervals of three independent experiments performed in triplicate are shown. *, P=0.004 PDGF and P=0.022 cromolyn+PDGF versus control.
Growth of Panc-1 and BxPC3 pancreatic adenocarcinoma cells was analyzed using MTS reagent (Promega, Madison, Wis.) according to the manufacturer's directions. Purified S100P (100 nM final concentration) with or without cromolyn (100 μM final concentration) was added to Panc-1 cells. Only cromolyn (0-100 μM) was added to BxPC-3 cells, which express endogenous S100P. For both cell models, 1.0×10^3 cells/well were plated in 96-well culture dishes. Cells were treated with S100P, PDGF, or cromolyn, or a combination, followed immediately by treatment with either S100P or PDGF. MTS (20 μL per well) was added to cells at various times, and the mixture was incubated for 1 hour at 37° C. Samples were then read at 490 nm (as O.D. units) on a uQuant-Microplate Spectrophotometer (Bio-Tek Services Inc., Richmond, Va.). The assay was performed three times in triplicate.

[2] = tested on: MPan-96 cells; assay: MPanc-96 cell invasiveness; assay type: cell-based, Human
[3] = tested on: NFκB promoter activity; assay: NFκB luciferase reporter assay in Panc-1 cells; assay type: cell-based
Description: FIGS. 3A, 3B, and 3C show the effect of cromolyn on S100P stimulated NFκB promoter activity in pancreatic cancer cells in vitro and in vivo. Panc-1 and BxPC-3 pancreatic cancer cell lines stably expressing an NFκB luciferase reporter were examined for the effects of S100P and cromolyn. […] Means and 95% confidence intervals are shown for three independent experiments performed in triplicate. *, P=0.022, †, P<0.001, and P<0.001 versus control; #, P=0.005 versus 100 nM S100P alone. […] Means and 95% confidence intervals are shown for three independent experiments performed in triplicate. *, P=0.003, †, P<0.001 versus control. […] After 1 week, tumor growth was assessed and NFκB activity was analyzed using an IVIS system (Xenogen Corp., Alameda, Calif.) after injecting mice with D-luciferin (150 mg per kg body weight) (0 time point). The mice were treated with cromolyn (5 mg per kg body weight by intraperitoneal injection), and NFκB luciferase activity was analyzed again at 24 and 48 hours. *, P=0.005 versus control. Means and 95% confidence intervals are shown for two independent experiments (n=4 mice per group). Two-tailed two-sample (unpaired for in vitro and paired for in vivo studies) Student's t-tests were used to determine P values.
To study pancreatic cancer cell NFκB activity, a lentivirus NFκB luciferase reporter gene construct was developed. The NFκB luciferase reporter gene was excised and isolated from the pNF-κB-Luc Vector (Clonetec, Mountain View, Calif.) and cloned into the lentiviral vector FG9 (Gift from Dr. Xiao-Feng Qin, Dept. of Immunology, M.D. Anderson Cancer Center replacing the CMV/LTR and UBiC promoters, to form Lenti-NFκB-Luc. Lentiviral NFκB vector were co-transfected with packaging constructs pRSVREV, pMDLg/pRRE, and the VSV-G expression plasmid pHCMVG, and lentivirus was produced in 293T cells by the calcium transfection method, as previously described in Qin, et al., Inhibiting HIV-1 infection in human T cells by lentiviral-mediated delivery of small interfering RNA against CCR5; Proc. Natl. Acad. Sci. U.S.A. 2003 Jan. 7; 100(1):183-8. […] Functional validation of NFκB reporter activity was conducted in vitro using TNF-α (20 ng/mL, Sigma, St. Louis, Mo.) as a positive control.
BxPC-3 and Panc-1 cells stably expressing a Lenti-NFkB-luc reporter construct were treated with S100P, cromolyn, or the combination for 5 hours. D-luciferin (150 μg/mL) was added to the cells, and luciferase activity was measured using an IVIS bioluminescence system (Xenogen Co. Alameda, Calif.). Each experiment was conducted three times in triplicate.

[4] = tested on: NFκB promoter activity; assay: NFκB luciferase reporter assay in BxPC-3 cells; assay type: cell-based; details: 5 hours; for basal NFκB activity, mean: 0 μM mean 1.4×10^6
[5] = target: T1, S100P binding with RAGE (Homo sapiens, UniProt P25815); assay: ELISA of S100P binding to RAGE (sRAGE coated plate)
T1 construct: full-length human S100P cDNA (NM_005980) was cloned into the pTrcHis2 vector; His; made in house; host or cells: bacteria (S100P)
T1 sequence (P25815 1-95): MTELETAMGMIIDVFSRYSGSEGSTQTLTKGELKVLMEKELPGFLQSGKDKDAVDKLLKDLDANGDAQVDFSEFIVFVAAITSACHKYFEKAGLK
Description: After removing un-bound S100P by washing with detergent, the bound S100P and RAGE complex was quantified by adding HRP labeled antibody against S100P. *, P=0.04 C5 1 μM versus cromolyn 5 μM. Two-tailed two-sample (unpaired) Student's t-tests were used to determine P values.
The plate was washed and the amount of bound S100P was quantitated using anti-S100P antibody.
The binding of S100P to RAGE was determined using an ELISA assay. sRAGE was attached to the dish and recombinant S100P (50 ng) was added with or without the indicated concentrations of cromolyn analogs. The plate was washed and the amount of bound S100P was quantitated using anti-S100P antibody.

[6] = tested on: SKOV3 ovarian cells; assay: SKOV3 ovarian cell proliferation; assay type: cell-based; details: different concentrations; 24, 48, 72 hours
Description: SKOV3 ovarian cells were cultured for up to three days in the presence of different concentrations of cromolyn, and cell proliferation was analyzed at 24, 48, and 72 hours. *, P<0.05.

[7] = S100P 100 nM + cromolyn 100 μM, 5 hours

With O=C(O)c1cc(=O)c2c(OCC(O)COc3cccc4oc(C(=O)O)cc(=O)c34)cccc2o1 [cromolyn, disodium 1,3-bis[(2′-carboxylatochromon-5′-yl)oxy]-2-hydroxypropane] the “serum stimulated cell proliferation” value ([1]; Panc-1) was “did not influence”, the “cell proliferation, cromolyn treatment alone” value ([1]; Panc-1, no S100P) was “no effect” and the “PDGF stimulated cell growth” value ([1]; Panc-1, PDGF 10 ng/mL with cromolyn 100 μM, 48 hours) was “nor did it inhibit growth stimulation caused by PDGF”. For the same compound, the “cell proliferation, mean” value ([1]; Panc-1, S100P 100 nM + cromolyn 100 μM) was 0.56 MTS units, the “cell proliferation, difference S100P versus S100P+cromolyn” value ([1]; Panc-1, S100P 100 nM, cromolyn 100 μM) was 0.37 MTS units and the basal cell invasiveness [2] was “inhibited”. For the same compound, the “NFκB promoter activity, difference versus 100 nM S100P alone” value [3, 7] was 7100 photons/sec, the “NFκB promoter activity, mean” value [3, 7] was 7360 photons/sec and the “basal NFκB activity” value ([3]; cromolyn alone) was “no effect”. For the same compound, the “basal NFκB activity, difference versus 0 μM” value ([4]; cromolyn 10 μM) was 4.7×10^5 photons/sec, the “basal NFκB activity, mean” value ([4]; cromolyn 10 μM) was 9.4×10^5 photons/sec and the “basal NFκB activity, difference versus 0 μM” value ([4]; cromolyn 100 μM) was 5.9×10^5 photons/sec. The “basal NFκB activity, mean” value ([4]; cromolyn 100 μM) was 8.2×10^5 photons/sec, the “blocking of the interaction / binding of S100P with RAGE” value [5] was “blocked; also recorded: able to block” and the “concentration achieving the same level of S100P inhibition” value ([5]; FIG. 7) was 5 µM. The “growth of SKOV3 cells” value [6] was “reduced the growth”.
